What was measured:
[1] = tested on: transfected CHO cells expressing recombinant human monoclonal antibody (cell line 1); assay: 24-deep well culture, cell line 1: VCD, viability, titer, qP; format: cell-based, Chinese hamster; conditions: for Titer / VCD / Viability / qP: Cell Line 1, 5 microM
Protocol: (§1) Transfected CHO cells expressing a recombinant human monoclonal antibody (mAb) are cultured in 24-deep well plates with seeding density at 1×10^7/mL for five days. At certain time periods, samples of the cultures are taken and evaluated for viable cell density (VCD; expressed in 10^6 cells/mL); percent viability (as determined by trypan blue exclusion); titer of recombinant protein (expressed in grams of protein per liter of culture, or g/L, as determined by Protein A affinity HPLC); qP, or specific productivity (expressed in picograms of recombinant protein per cell per day, or pg/c/d), the presence or absence of high molecular weight substances (usually an indicator of protein aggregation; expressed as % of the total protein); and the relative percentage of Mannose 5, a major intermediate glyco-form that attaches to N297 of the mAb. N-linked glycosylation has an impact on the tertiary structure of the antibody and may affect Fc mediated antibody effector functions. The majority of the human Fc glycans are complex biantennary structures with galactose as the prevalent terminal sugar. Immature glyco-forms, such as high-mannose glycol-forms (Man5-9), are of concern due to potential higher plasma clearance rate (as compared to the clearance rate of complex glycan linked mAbs).
(§2) Compounds are further evaluated essentially as described in Example 2 herein. Briefly, transfected CHO cells expressing recombinant human monoclonal antibody (mAb; two different cell lines expressing two different mAb, referred to as cell line 1 and cell line 2) are cultured in 24-deep well plates in the presence or absence of the compounds. At specified time points, samples of the cultures are taken and evaluated for viable cell density (VCD; expressed in 10^6 cells/mL); percent viability (as determined by any method known in the art); titer of recombinant protein (expressed in grams of protein per liter of culture, or g/L, as determined by Protein A affinity HPLC); qP, or specific productivity (expressed in picograms of recombinant protein per cell per day, or pg/c/d). Additional parameters measure include the presence or absence of high molecular weight substances (usually an indicator of protein aggregation; expressed as % of the total protein); and the relative percentage of Mannose 5. For comparison purposes, Compounds A and B, which had been previously tested, were tested again.

CHO cells [2] = assay: Cell cycle analysis: propidium iodide staining and FACS; format: cell-based, Chinese hamster; conditions: 5 microM
Protocol: (§3) In one set of experiments, a cell cycle analysis was performed for various cell cycle inhibitory compounds. Briefly, CHO cells are grown in 24 deep well plate (for example, Corning Axygen deep well plates; Corning, Amsterdam, The Netherlands), using standard cell-culture medium, under conditions promoting growth of the cells (for example 36 degreesC, 5% CO2) in the presence of various cell cycle inhibitors. Samples are collected at various time points, and cell cycle profiles are obtained by propidium iodide (PI) staining followed by fluorescence-activated cell sorting (FACS) analysis. Results for compounds 6-acetyl-8-cyclopentyl-5-methyl-2-((5-(1-piperazinyl)-2-pyridinyl)amino)pyrido[2,3-d][…] (Compound A) and N-(6-(4-(dimethylamino)-1-piperidinyl)-3-pyridazinyl)-9-(trans-4-methylcyclohexyl)-9H-pyrido[4′,3′,:4,5]pyrrolo[2,3-d]pyrimidin-2-amine (Compound B) are shown in Table 1 below.

[3] = tested on: transfected CHO cells expressing recombinant human monoclonal antibody (cell line 2); assay: 24-deep well culture, cell line 2: VCD, viability, titer, qP; format: cell-based, Chinese hamster
Protocol: as §1, §2

CDK4/Cyclin D1 = biological target: T1, CDK4/Cyclin D1 (Homo sapiens, UniProt P11802); assay: CDK4 filtration kinase assay; format: biochemical; conditions: CDK4/Cyclin D1, Rb fragment substrate, [33P]-ATP
T1 construct: purchased Cell Signaling Technology
T1 sequence (P11802 whole entry, species assumed, the tested form may be a part): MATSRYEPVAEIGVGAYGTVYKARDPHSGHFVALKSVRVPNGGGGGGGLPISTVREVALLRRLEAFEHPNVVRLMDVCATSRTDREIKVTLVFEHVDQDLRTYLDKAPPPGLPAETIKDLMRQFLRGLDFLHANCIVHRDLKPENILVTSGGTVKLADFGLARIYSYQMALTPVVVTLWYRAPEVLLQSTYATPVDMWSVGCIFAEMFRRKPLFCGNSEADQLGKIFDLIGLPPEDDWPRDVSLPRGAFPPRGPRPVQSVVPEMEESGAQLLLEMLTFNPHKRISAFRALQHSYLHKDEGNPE
T1 sequence (P24385 whole entry partner, species assumed, the tested form may be a part): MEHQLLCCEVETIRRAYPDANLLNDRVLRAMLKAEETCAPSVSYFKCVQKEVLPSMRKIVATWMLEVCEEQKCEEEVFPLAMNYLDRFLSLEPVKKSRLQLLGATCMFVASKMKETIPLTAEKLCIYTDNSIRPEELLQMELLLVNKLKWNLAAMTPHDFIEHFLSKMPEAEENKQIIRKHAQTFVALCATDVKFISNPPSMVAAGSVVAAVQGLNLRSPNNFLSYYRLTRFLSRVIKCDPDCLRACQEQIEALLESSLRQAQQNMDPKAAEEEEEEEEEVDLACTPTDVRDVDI
Protocol: The CDK4 inhibitory activity of the cell cycle inhibitors was determined with a filtration kinase assay. The compounds, kinase and substrate diluted in the kinase buffer (20 mM Tris, pH7.4, 50 mM NaCl, 1 mM DTT, 0.1% BSA) were sequentially added to a 96-well Multiscreen HTS filtration plate (Millipore). The final 100 μL reaction mixture in each well contained 0.3 μg of CDK4/Cyclin D1 (Cell Signaling Technology), 1 μg of Rb fragment (aa773-928, Millipore) for the CDK4 assay and 1 μCi of [^33P]-ATP. The mixture was incubated at room temperature for 1 hour. The proteins in the reaction were then precipitated and washed with cold TCA solution using an aspiration/filtration vacuum system. The plates were dried at room temperature, and the retained radioactivity was measured by scintillation counting. IC50 values of the compounds in the above assays were determined by non-linear regression analysis using Prism (GraphPad Software).

Colo205 = assay: [14C]-thymidine incorporation cell proliferation inhibition assay; format: cell-based; conditions: Homo sapiens, COLO 205, 72 hour incubation
Protocol: The cell proliferation inhibition potency of the cell cycle inhibitors was determined by using a [^14C]-thymidine incorporation assay. Exponentially growing cells (Colo205) were seeded in a 96-well Cytostar T plate (GE Healthcare Biosciences) at a density of 5×10^3 cells/well and incubated overnight. Serially diluted compounds and 0.1 μCi of [^14C]-thymidine (GE Healthcare Biosciences) were added to each well on the following day. After 72 hour incubation, isotope incorporation was determined with a β plate counter (Wallac). IC50 values of the compounds in the above assays were determined by non-linear regression analysis using Prism (GraphPad Software).

[4] = tested on: mammalian cells such as CHO cells; assay: Predicted specific productivity of recombinant protein for Compound M; format: cell-based, Chinese hamster; conditions: predicted from Table 4, structural similarity, CDK4 assay and cell proliferation assay
CHO cells [5] = assay: Initial dosage and time course study: cell viability and growth arrest (Table 4); format: cell-based, Chinese hamster
Protocol: as §3
Various compounds were tested in an initial dosage and time course study to ascertain their effects on cell viability and growth phase arrest substantially as described previously in Example 1. Compounds were evaluated for effect, or lack thereof, on viability, as well as their ability to cause growth arrest. Compounds that maintained at least 80% cell viability at one or more concentrations for the five day duration of this assay were regarded as having relatively little or no cell cytotoxicity.

## CN(C)C1CCN(c2ccc(Nc3ncc4c5ccncc5n([C@H]5CC[C@H](C)CC5)c4n3)nn2)CC1 [Compound B, N-(6-(4-(dimethylamino)-1-piperidinyl)-3-pyridazinyl)-9-(trans-4-methylcyclohexyl)-9H-pyrido[4′,3′,:4,5]pyrrolo[2,3-d]pyrimidin-2-amine]
[1]; D 1
  Titer: 0.47 g/L
  VCD: 10.95 e6/mL
  Viability: 94.83%
  qP: 42.90 pg/c/d
[1]; D 2
  Titer: 0.70 g/L
  VCD: 9.61 e6/mL
  Viability: 85.63%
  qP: 72.84 pg/c/d
[1]; D 3
  Titer: 0.96 g/L
  VCD: 10.14 e6/mL
  Viability: 82.33%
  qP: 94.99 pg/c/d
[1]; D 4
  Titer: 1.19 g/L
  VCD: 12.66 e6/mL
  Viability: 78.87%
  qP: 94.23 pg/c/d
[1]; summary of Table 2
  effect on viability: greater (but still modest) decreases in viability
  growth arrest: more sustained growth arrest
CHO cells [2]; Day 1
  Cell Cycle Distribution (%) G1: 91.22%
  Cell Cycle Distribution (%) G2/M: 2.74%
  Cell Cycle Distribution (%) S: 6.04%
CHO cells [2]; Day 2
  Cell Cycle Distribution (%) G1: 74.82%
  Cell Cycle Distribution (%) G2/M: 5.75%
  Cell Cycle Distribution (%) S: 19.43%
CHO cells [2]; Day 3
  Cell Cycle Distribution (%) G1: 79.21%
  Cell Cycle Distribution (%) G2/M: 3.49%
  Cell Cycle Distribution (%) S: 17.3%
CHO cells [2]; Day 4
  Cell Cycle Distribution (%) G1: 78.68%
  Cell Cycle Distribution (%) G2/M: 6.13%
  Cell Cycle Distribution (%) S: 15.19%
[3]; 5 microM, D 1
  Titer: 0.29 g/L
  VCD: 10.88 e6/mL
  Viability: 95.11%
  qP: 26.34 pg/c/d
[3]; 5 microM, D 2
  Titer: 0.49 g/L
  VCD: 11.15 e6/mL
  Viability: 89.60%
  qP: 43.95 pg/c/d
[3]; 5 microM, D 3
  Titer: 0.62 g/L
  VCD: 13.45 e6/mL
  Viability: 87.50%
  qP: 46.35 pg/c/d
[3]; 5 microM, D 4
  Titer: 0.89 g/L
  VCD: 20.16 e6/mL
  Viability: 87.46%
  qP: 43.97 pg/c/d
CDK4/Cyclin D1
  IC50: 2.75 nM
Colo205
  IC50: 14.8 nM

## CN(C)C1CCN(c2ccc(Nc3ncc4c(n3)C3(C=CC(C)(C)CC3)c3cnccc3-4)nc2)CC1 (stereo not drawn) [Compound L, N-(5-(4-(dimethylamino)piperidin-1-yl)pyridin-2-yl)-4,4-dimethylspiro[cyclohex[2]ene-1,9′-pyrido[4′,3′:3,4]cyclopenta[1,2-d]pyrimidin]-2′-amine]
[3]; 1.2 microM, D 1
  Titer: 0.28 g/L
  VCD: 11.76 e6/mL
  Viability: 94.88%
  qP: 23.81 pg/c/d
[3]; 1.2 microM, D 2
  Titer: 0.49 g/L
  VCD: 13.63 e6/mL
  Viability: 92.63%
  qP: 35.94 pg/c/d
[3]; 1.2 microM, D 3
  Titer: 0.58 g/L
  VCD: 18.56 e6/mL
  Viability: 92.09%
  qP: 31.42 pg/c/d
[3]; 1.2 microM, D 4
  Titer: 0.70 g/L
  VCD: 26.40 e6/mL
  Viability: 91.17%
  qP: 26.64 pg/c/d
[3]; 2.4 microM, D 1
  Titer: 0.28 g/L
  VCD: 11.43 e6/mL
  Viability: 94.24%
  qP: 24.20 pg/c/d
[3]; 2.4 microM, D 2
  Titer: 0.47 g/L
  VCD: 12.95 e6/mL
  Viability: 91.47%
  qP: 36.29 pg/c/d
[3]; 2.4 microM, D 3
  Titer: 0.60 g/L
  VCD: 16.19 e6/mL
  Viability: 90.68%
  qP: 37.05 pg/c/d
[3]; 2.4 microM, D 4
  Titer: 0.76 g/L
  VCD: 24.27 e6/mL
  Viability: 91.43%
  qP: 31.18 pg/c/d
CDK4/Cyclin D1
  IC50: 1.4 nM
Colo205
  IC50: 23.5 nM

## CC(=O)c1c(C)c2cnc(Nc3ccc(N4CCNCC4)nn3)nc2n(C2CCCC2)c1=O [Compound M, 6-acetyl-8-cyclopentyl-5-methyl-2-((6-(piperazin-1-yl)pyridazin-3-yl)amino)pyrido[2,3-d]pyrimidin-7(8H)-one]
[4]
  increase in specific productivity (qP) of recombinant protein: > 200%
CHO cells [5]; 2.5 microM, D 1
  VCD: 0.4656 e6/mL
CHO cells [5]; 2.5 microM, D 2
  VCD: 0.6879 e6/mL
  Viability: 97.90%
CHO cells [5]; 2.5 microM, D 3
  VCD: 1.1916 e6/mL
  Viability: 97.65%
CHO cells [5]; 2.5 microM, D 4
  VCD: 2.1883 e6/mL
  Viability: 96.47%
CHO cells [5]; 5 microM, D 1
  VCD: 0.4129 e6/mL
CHO cells [5]; 5 microM, D 2
  VCD: 0.5439 e6/mL
  Viability: 97.90%
CHO cells [5]; 5 microM, D 3
  VCD: 0.8760 e6/mL
  Viability: 97.67%
CHO cells [5]; 5 microM, D 4
  VCD: 1.4543 e6/mL
  Viability: 95.90%
CHO cells [5]; 10 microM, D 1
  VCD: 0.4204 e6/mL
CHO cells [5]; 10 microM, D 2
  VCD: 0.4984 e6/mL
  Viability: 97.90%
CHO cells [5]; 10 microM, D 3
  VCD: 0.7601 e6/mL
  Viability: 97.06%
CHO cells [5]; 10 microM, D 4
  VCD: 1.2297 e6/mL
  Viability: 95.85%
CHO cells [5]; 20 microM, D 1
  VCD: 0.3915 e6/mL
CHO cells [5]; 20 microM, D 2
  VCD: 0.4101 e6/mL
  Viability: 97.90%
CHO cells [5]; 20 microM, D 3
  VCD: 0.5348 e6/mL
  Viability: 97.31%
CHO cells [5]; 20 microM, D 4
  VCD: 0.8023 e6/mL
  Viability: 96.04%
CHO cells [5]; compared with Compound A
  cytotoxicity and growth arrest properties: very similar, at similar concentrations, to the properties of Compound A
CDK4/Cyclin D1
  IC50: 15 nM
Colo205
  IC50: 92 nM
